Results published in PubChem BioAssay AID2060611 (Molecular Pharmacology Branch, DTP, NCI, 2025).

System: 628569-122-R-J1-PDC complex spheroid viability
Assay: Anticancer human tumor 628569-122-R-J1-PDC patient-derived head and neck squamous carcinoma cell line growth inhibition [CLK]
Conditions: for IC50: curve of first compound; for viability, T/C: stronger effect = lower value
Summary of the method: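 Multi-cell-type spheroids combined patient-derived tumor cells with HUVEC endothelial cells and human mesenchymal stem cells. Paired agents were dosed in half-log steps down from about clinical Cmax, or from 10 microM where Cmax was unknown.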
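Note: spheroids exposed to agents for seven days before readout.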
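Throughout, for viability, T/C: 100% = DMSO vehicle control viability.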

SMILES: COc1ccc([C@@H](O)c2cc(-c3ncnc4cc(N5CCOCC5)ccc34)c(F)cc2Cl)nn1 + CNC(=O)c1ccc(Nc2nc(OC3CCCC3)c3c(-c4ccc5nc(C)oc5c4)c[nH]c3n2)c(OC)c1
- IC50 (second compound 0.0316 µM): 2010 nM
- IC50 (second compound 0.1 µM): 260 nM
- IC50 (second compound 0.316 µM): < 31.6 nM
- IC50 (second compound 1 µM): < 31.6 nM
- IC50 (second compound 3.16 µM): < 31.6 nM
- IC50 (second compound 10 µM): < 31.6 nM
- viability, T/C (second compound 0.0316 µM, first compound 0.0316 µM): 83.7%
- viability, T/C (second compound 0.0316 µM, first compound 0.1 µM): 80.5%
- viability, T/C (second compound 0.0316 µM, first compound 0.316 µM): 78.1%
- viability, T/C (second compound 0.0316 µM, first compound 1 µM): 61.8%
- viability, T/C (second compound 0.0316 µM, first compound 3.16 µM): 42.3%
- viability, T/C (second compound 0.0316 µM, first compound 10 µM): 35%
- viability, T/C (second compound 0.1 µM, first compound 0.0316 µM): 54.5%
- viability, T/C (second compound 0.1 µM, first compound 0.1 µM): 47.7%
- viability, T/C (second compound 0.1 µM, first compound 0.316 µM): 49.6%
- viability, T/C (second compound 0.1 µM, first compound 1 µM): 48.4%
- viability, T/C (second compound 0.1 µM, first compound 3.16 µM): 41.9%
- viability, T/C (second compound 0.1 µM, first compound 10 µM): 33.8%
- viability, T/C (second compound 0.316 µM, first compound 0.0316 µM): 47.5%
- viability, T/C (second compound 0.316 µM, first compound 0.1 µM): 41.4%
- viability, T/C (second compound 0.316 µM, first compound 0.316 µM): 41.7%
- viability, T/C (second compound 0.316 µM, first compound 1 µM): 39%
- viability, T/C (second compound 0.316 µM, first compound 3.16 µM): 39.4%
- viability, T/C (second compound 0.316 µM, first compound 10 µM): 29.7%
- viability, T/C (second compound 1 µM, first compound 0.0316 µM): 46.8%
- viability, T/C (second compound 1 µM, first compound 0.1 µM): 42.9%
- viability, T/C (second compound 1 µM, first compound 0.316 µM): 41.7%
- viability, T/C (second compound 1 µM, first compound 1 µM): 29.6%
- viability, T/C (second compound 1 µM, first compound 3.16 µM): 36.4%
- viability, T/C (second compound 1 µM, first compound 10 µM): 31.4%
- viability, T/C (second compound 3.16 µM, first compound 0.0316 µM): 33.2%
- viability, T/C (second compound 3.16 µM, first compound 0.1 µM): 39.5%
- viability, T/C (second compound 3.16 µM, first compound 0.316 µM): 34.4%
- viability, T/C (second compound 3.16 µM, first compound 1 µM): 37.4%
- viability, T/C (second compound 3.16 µM, first compound 3.16 µM): 38.4%
- viability, T/C (second compound 3.16 µM, first compound 10 µM): 21%
- viability, T/C (second compound 10 µM, first compound 0.0316 µM): 45.1%
- viability, T/C (second compound 10 µM, first compound 0.1 µM): 41.7%
- viability, T/C (second compound 10 µM, first compound 0.316 µM): 32.2%
- viability, T/C (second compound 10 µM, first compound 1 µM): 36.1%
- viability, T/C (second compound 10 µM, first compound 3.16 µM): 27.8%
- viability, T/C (second compound 10 µM, first compound 10 µM): 18.9%
